Test system: skin (inner sides of the forearms)
Test: Adsorption of lauryl ether sulfate on the skin in a simulated washing operation (forearm, desorption with Triton X-100, ion-pair chromatography)
Assay type: in vivo, human
Protocol: The method which we have developed for determining the adsorption of lauryl ether sulfate on the skin simulates a washing operation as occurs, for example, during daily showering: Firstly, the inner sides of the forearms are divided into a number of test areas using insulating tape. The area to be treated is then wetted with approximately 50 ml of mains wafer (T=38±1° C.). The lauryl ether sulfate is then applied. Throughout the application period of 45 s, the test subject distributes the lauryl ether sulfate over the area using 2 fingers in uniform circular movements. At the end of the application period, the test area is rinsed with approximately 950 ml of mains water (T=38±1° C.) and carefully patted dry using a clean cellulose cloth. For the desorption, a plastic ring with an internal diameter of 25 mm is pressed firmly onto the inner side of the test subject's forearm. 1000 μl of a 1% Triton X-100 solution are then introduced into the ring. The tip of a round Teflon-coated spatula is then used to scrape the skin uniformly for 1 min. This leads to suspension of corneocytes. To work up the samples for analysis, the samples are centrifuged and 800 μl of the supernatant are drawn off. The supernatant is analyzed with regard to its lauryl ether sulfate content using ion-pair chromatography. The effectiveness of the desorption method described is 79%, i.e. 79% of the amount of lauryl ether sulfate actually present on the skin are included.

[1] = cosurfactant concentration 3%, added to a lauryl ether sulfate solution

Row | Compound | Effect on the adsorbed amount of lauryl ether sulfate (reduction) [1] | further results
1 | CCCCCCCCCCO[C@@H]1O[C@H](CO)[C@@H](O)[C@H](O)[C@H]1O [Decyl glucoside] | – | Effect on the adsorbed amount of lauryl ether sulfate (reduction) (cosurfactant concentration 5%, added to a lauryl ether sulfate solution): Reduction by 29%
2 | CCCCCCCCCCCC(=O)O [Lauric acid] | – | Effect on the adsorbed amount of lauryl ether sulfate (reduction) (cosurfactant concentration 1%, pH9, added to a lauryl ether sulfate solution): Reduction by 15%
3 | cocamidopropylbetaine | Reduction by 31% | –
4 | disodium laureth sulfosuccinate | Reduction by 28% | –
5 | sodium cocoamphoacetate | Reduction by 27% | –

Reference: US20020054861A1, “Method of preparing particularly skin-compatible cosmetic or dematological cleansing preparations” (priority 1999, published 2002)
